SMILES strings stand for the structures.

The test deals with KRAS G12V dependent lung adenocarcinoma cell line, NCI-H441. The test is described as follows: Cellular pERK (Thr202/Tyr204) FRET/HTRF assay. Type of test: cell-based. As to conditions: Homo sapiens, NCI-H441, cellular pERK (Thr202/Tyr204) HTRF, NCI-H441 cells. The gist of the method:
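NCI-H441 cells (KRAS G12V) plated overnight at 37 °C, then exposed to compounds for 1 hr at 37 °C, 5% CO2; DMSO as negative control. Lysates read by Eu-cryptate/d2 sandwich FRET (665 nm) for ERK1/2 phosphorylated at Thr202/Tyr204; IC50 from curve fit.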
Usually IC50 stands for the concentration needed to halve the response being measured. Higher therefore signals weaker potency in that assay. `C=C1CN2CCC3(CC3)[C@@]2(COc2nc(N3CCOC[C@H]4[C@H](F)[C@H]43)c3cnc(-c4cc(N)c(F)c(C)c4C(F)(F)F)c(F)c3n2)C1` [Example 226, 2-fluoro-5-(8-fluoro-4-((1S,7S,8S)-8-fluoro-5-oxa-2-azabicyclo[5.1.0]octan-2-yl)-2-(((R)-6′-methylenetetrahydrospiro[cyclopropane-1,1′-pyrrolizin]-7a′(5′H)-yl)methoxy)pyrido[4,3-d]pyrimidin-7-yl)-3-methyl-4-(trifluoromethyl)aniline] yielded an IC50 of under 0.05 µM.
`[2H]C([2H])(F)Oc1c(F)ccc2cc(N)cc(-c3ncc4c(N5CCOC[C@H]6[C@H](F)[C@H]65)nc(OC[C@@]56CC7(CC7)CN5CCC65CC5)nc4c3F)c12` [Example 227, 4-(2-(((S)-dihydro-5′H-dispiro[cyclopropane-1,1′-pyrrolizine-6′,1″- cyclopropan]-7a′(7′H)-yl)methoxy)-8-fluoro-4-((1S,7S,8S)-8-fluoro-5-oxa-2-azabicyclo[5.1.0]octan-2-yl)pyrido[4,3-d]pyrimidin-7-yl)-6-fluoro-5-(fluoromethoxy-d2)naphthalen-2-amine] displayed an IC50 of under 0.05 µM.
`[2H]C([2H])(F)Oc1c(F)ccc2cc(N)cc(-c3ncc4c(N5CCOC[C@H]6[C@H](F)[C@H]65)nc(OC[C@]56CC7(CC7)CN5CCC65CC5)nc4c3F)c12` [Example 228, 4-(2-(((R)-dihydro-5′H-dispiro[cyclopropane-1,1′-pyrrolizine-6′,1″- cyclopropan]-7a′(7′H)-yl)methoxy)-8-fluoro-4-((1S,7S,8S)-8-fluoro-5-oxa-2-azabicyclo[5.1.0]octan-2-yl)pyrido[4,3-d]pyrimidin-7-yl)-6-fluoro-5-(fluoromethoxy-d2)naphthalen-2-amine] gave an IC50 of under 0.05 µM.
On to `[2H]C([2H])(Oc1nc(N2CCOC[C@H]3[C@H](F)[C@H]32)c2c(OC)nc(-c3cccc4ccc(F)c(C#C)c34)c(F)c2n1)[C@@]12CCCN1C[C@H](F)C2` [Example 235, (1S,7S,8S)-2-(7-(8-ethynyl-7-fluoronaphthalen-1-yl)-8-fluoro-2-(((2R,7aS)-2-fluorotetrahydro-1H-pyrrolizin-7a(5H)-yl)methoxy-d2)-5-methoxypyrido[4,3-d]pyrimidin-4-yl)-8-fluoro-5-oxa-2-azabicyclo[5.1.0]octane], for which the IC50 lay within 0.5 to 10 µM.
Next, `[2H]C([2H])(Oc1nc(N2CCOC[C@@H]3[C@@H](F)[C@@H]32)c2c(OC)nc(-c3cccc4ccc(F)c(C#C)c34)c(F)c2n1)[C@@]12CCCN1C[C@H](F)C2` [Example 236, (1R,7R,8R)-2-(7-(8-ethynyl-7-fluoronaphthalen-1-yl)-8-fluoro-2-(((2R,7aS)-2-fluorotetrahydro-1H-pyrrolizin-7a(5H)-yl)methoxy-d2)-5-methoxypyrido[4,3-d]pyrimidin-4-yl)-8-fluoro-5-oxa-2-azabicyclo[5.1.0]octane]: 0.5 to 10 µM.
The compound `C#Cc1c(F)ccc2cc(N)cc(-c3ncc4c(N5CCOC[C@H]6[C@H](F)[C@H]65)nc(OC[C@@]56CCC(C)(C)N5C[C@H](F)C6)nc4c3F)c12` [Example 239, 5-ethynyl-6-fluoro-4-(8-fluoro-2-(((2R,7aS)-2-fluoro-5,5-dimethyltetrahydro-1H-pyrrolizin-7a(5H)-yl)methoxy)-4-((1S,7S,8S)-8-fluoro-5-oxa-2-azabicyclo[5.1.0]octan-2-yl)pyrido[4,3-d]pyrimidin-7-yl)naphthalen-2-amine] yielded an IC50 of under 0.05 µM.
Under `[2H]C([2H])(Oc1nc(N2CCOCC3C2C3(Cl)Cl)c2cnc(-c3cc(N)cc4ccc(F)c(C#C)c34)c(F)c2n1)[C@@]12CCCN1C[C@H](F)C2` (stereo partly drawn) [Example 240, 4-(4-(8,8-dichloro-5-oxa-2-azabicyclo[5.1.0]octan-2-yl)-8-fluoro-2-(((2R,7aS)-2-fluorotetrahydro-1H-pyrrolizin-7a(5H)-yl)methoxy-d2)pyrido[4,3-d]pyrimidin-7-yl)-5-ethynyl-6-fluoronaphthalen-2-amine] stands 0.5 to 10 µM; under `[2H]C([2H])(Oc1nc(N2CCOC[C@H]3[C@H](F)[C@H]32)c2c(OC)nc(-c3cc(O)cc4ccc(F)c(C#C)c34)c(F)c2n1)[C@@]12CCCN1C[C@H](F)C2` [Example 241, 5-ethynyl-6-fluoro-4-(8-fluoro-4-((1S,7S,8S)-8-fluoro-5-oxa-2-azabicyclo[5.1.0]octan-2-yl)-2-(((2R,7aS)-2-fluorotetrahydro-1H-pyrrolizin-7a(5H)-yl)methoxy-d2)-5-methoxypyrido[4,3-d]pyrimidin-7-yl)naphthalen-2-ol], under 0.05 µM.
Next, `C#Cc1c(F)ccc2cc(N)cc(-c3ncc4c(N5CCOC[C@H]6[C@H](F)[C@H]65)nc(OC[C@@]56C=C(C)CN5CCC65CC5)nc4c3F)c12` [Example 244, 5-ethynyl-6-fluoro-4-(8-fluoro-4-((1S,7S,8S)-8-fluoro-5-oxa-2-azabicyclo[5.1.0]octan-2-yl)-2-(((S)-6′-methyl-2′,3′-dihydrospiro[cyclopropane-1,1′-pyrrolizin]-7a′(5′H)-yl)methoxy)pyrido[4,3-d]pyrimidin-7-yl)naphthalen-2-amine]: under 0.05 µM; `C#Cc1c(F)ccc2cccc(-c3ncc4c(N5CCOC[C@H]6[C@H](F)[C@H]65)nc(OC[C@]56C[C@@H](F)CN5C[C@@H](CNC(C)=O)C6)nc4c3F)c12` [Example 245, N-(((2R,6R,7aS)-7a-(((7-(8-ethynyl-7-fluoronaphthalen-1-yl)-8-fluoro-4-((1S,7S,8S)-8-fluoro-5-oxa-2-azabicyclo[5.1.0]octan-2-yl)pyrido[4,3-d]pyrimidin-2-yl)oxy)methyl)-6-fluorohexahydro-1H-pyrrolizin-2-yl)methyl)acetamide]: 0.05 to 0.5 µM.
`C#Cc1c(F)ccc2cccc(-c3ncc4c(N5CCOC[C@H]6[C@H](F)[C@H]65)nc(OC[C@]56C[C@@H](F)CN5C[C@@H](CN)C6)nc4c3F)c12` [Example 246, ((2R,6R,7aS)-7a-(((7-(8-ethynyl-7-fluoronaphthalen-1-yl)-8-fluoro-4-((1S,7S,8S)-8-fluoro-5-oxa-2-azabicyclo[5.1.0]octan-2-yl)pyrido[4,3-d]pyrimidin-2-yl)oxy)methyl)-6-fluorohexahydro-1H-pyrrolizin-2-yl)methanamine]: the IC50 fell in the range of 0.5 to 10 µM.
`[2H]c1cc2cc(N)cc(-c3ncc4c(N5CCOC[C@H]6[C@H](F)[C@H]65)nc(OC([2H])([2H])[C@@]56CCCN5C[C@H](F)C6)nc4c3F)c2c(C#C)c1F` [Example 256, 5-ethynyl-6-fluoro-4-(8-fluoro-4-((1S,7S,8S)-8-fluoro-5-oxa-2-azabicyclo[5.1.0]octan-2-yl)-2-(((2R,7aS)-2-fluorotetrahydro-1H-pyrrolizin-7a(5H)-yl)methoxy-d2)pyrido[4,3-d]pyrimidin-7-yl)naphthalen-7-d-2-amine] displayed an IC50 of under 0.05 µM.
Regarding `C#Cc1c(F)ccc2cc(N)cc(-c3ncc4c(N5CCOC[C@H]6[C@H](F)[C@H]65)nc(OC[C@]56C[C@@H](F)CN5C[C@@H](CNC(C)=O)C6)nc4c3F)c12` [Example 257, N-(((2R,6R,7aS)-7a-(((7-(3-amino-8-ethynyl-7-fluoronaphthalen-1-yl)-8-fluoro-4-((1S,7S,8S)-8-fluoro-5-oxa-2-azabicyclo[5.1.0]octan-2-yl)pyrido[4,3-d]pyrimidin-2-yl)oxy)methyl)-6-fluorohexahydro-1H-pyrrolizin-2-yl)methyl)acetamide], the IC50 lay in the range of 0.05 to 0.5 µM.
Next, `C#Cc1c(F)ccc2cc(N)cc(-c3ncc4c(N5CCOC[C@H]6[C@H](F)[C@H]65)nc(OC[C@]56C[C@@H](F)CN5C[C@@H](CN)C6)nc4c3F)c12` [Example 258, 4-(2-(((2R,6R,7aS)-2-(aminomethyl)-6-fluorotetrahydro-1H-pyrrolizin-7a(5H)-yl)methoxy)-8-fluoro-4-((1S,7S,8S)-8-fluoro-5-oxa-2-azabicyclo[5.1.0]octan-2-yl)pyrido[4,3-d]pyrimidin-7-yl)-5-ethynyl-6-fluoronaphthalen-2-amine]: 0.05 to 0.5 µM; `C#Cc1c(F)ccc2cc(N)cc(-c3ncc4c(N5CCOC[C@H]6[C@H](F)[C@H]65)nc(OC[C@@]56CC[C@H](C)N5C[C@H](F)C6)nc4c3F)c12` [Example 259, 5-Ethynyl-6-fluoro-4-(8-fluoro-2-(((2R,5S,7aS)-2-fluoro-5-methyltetrahydro-1H-pyrrolizin-7a(5H)-yl)methoxy)-4-((1S,7S,8S)-8-fluoro-5-oxa-2-azabicyclo[5.1.0]octan-2-yl)pyrido[4,3-d]pyrimidin-7-yl)naphthalen-2-amine]: under 0.05 µM; `[2H]C([2H])(Oc1nc(N2CCOC[C@H]3[C@H](F)[C@H]32)c2cnc(-c3cc(N)cc4ccc(F)c(C#C)c34)cc2n1)[C@@]12CCCN1C[C@H](F)C2` [Example 261, 5-ethynyl-6-fluoro-4-(4-((1S,7S,8S)-8-fluoro-5-oxa-2-azabicyclo[5.1.0]octan-2-yl)-2-(((2R,7aS)-2-fluorotetrahydro-1H-pyrrolizin-7a(5H)-yl)methoxy-d2)pyrido[4,3-d]pyrimidin-7-yl)naphthalen-2-amine]: under 0.05 µM.
`C#Cc1c(F)ccc2cc(N)cc(-c3ncc4c(N5CCOC[C@H]6[C@H](F)[C@H]65)nc(OC[C@@]56CCCN5C(C)(C)[C@H](F)C6)nc4c3F)c12` [Example 262, 5-ethynyl-6-fluoro-4-(8-fluoro-2-(((2R,7aS)-2-fluoro-3,3-dimethyltetrahydro-1H-pyrrolizin-7a(5H)-yl)methoxy)-4-((1S,7S,8S)-8-fluoro-5-oxa-2-azabicyclo[5.1.0]octan-2-yl)pyrido[4,3-d]pyrimidin-7-yl)naphthalen-2-amine] displayed an IC50 of under 0.05 µM.

Values taken from patent US20250282799A1, “SUBSTITUTED PYRIDO[4,3-d]PYRIMIDINES AS KRAS MODULATORS” (Alterome Therapeutics, Inc., priority 2023, published 2025).
